Reference: US8722661B2, “Pyrrolopyrimidone and pyrrolopyridone inhibitors of tankyrase” (Genentech, Inc., priority 2012, dated 2014)

How the values were obtained:
tankyrase 2 (His6-TNKS2) = biological target: T1, tankyrase 2 (His6-TNKS2) (Homo sapiens, UniProt Q9H2K2); experiment: μHTS-TNKS-IWR2 TR-FRET binding assay with His6-TNKS2 in place of TNKS1; conditions: Table I
T1 construct: His6-tankyrase 2 (construct: 934-1166)
Description: (§1) μHTS-TNKS-IWR2TR-FRET Binding Assay
(§2) (10 μL/well in BD1536-well plate, a single point)
(§3) Alternatively, in place of His6-TNKS1 can use either His6-tankyrase 2 (construct: 934-1166) (His6-TNKS2) or His6-PARP1 (full length).
(§4) Biotin-IWR2: 10 mM Biotin-IWR2 stock in DMSO, stored at −20° C.
Positive control: 10 mM XAV 939 in DMSO, stored at −20° C.
(§5) Prepare Biotinylated IWR2 stock solution (3.33× stock) for TOTL and cpd wells: 200 nM Biotin-IWR2 in 5% DMSO/AB1b buffer
(§6) Prepare POSITIVE CONTROL well stock solution (3.33× stock): 200 nM XAV939 in 200 nM Biotin-IWR2/5% DMSO/AB1b buffer
(§7) (Alternatively, use TNKS2 or PARP1 stock solutions.)
(§8) Prepare Eu/APC stock solution (5× stock): 3.5 nM Eu-SA/50 nM APC-His6Ab in AB2 buffer
(§9) Add 25 μL/well 1.5% DMSO/AB1c buffer in each compound well to the compound concentration at 74 μM in 8.8% DMSO/AB1c buffer or in the 2 μL DMSO CONTROL wells (BLANK, TOTAL and POSITIVE wells) in the compound plate.
(§10) Transfer 3 μL/well above solution (solution 1,2,3) to an empty assay plate (BD1536-well plate) as follows:
(§11) Transfer 3 μL/well of the above diluted compound solutions or compound dilution buffer to the above assay plate.
(§12) Add 2 μL/well of 300 nM TNKS stock solution (4) to every well in the above assay plate.
(§13) Incubate the assay plate at 26° C. for 30 minutes.
(§14) Incubate the assay plate at 26° C. for 60 minutes.
(§15) Read the assay plate immediately at excitation wavelength of 330 nm and emission wavelength of […] in time resolved fluorescence mode.
(§16) Representative compound data for assays are listed below in Table I. Values are in uM.

Tankyrase 1 (TNKS1) = biological target: T2, Tankyrase 1 (TNKS1) (Homo sapiens, UniProt O95271); experiment: μHTS-TNKS-IWR2 TR-FRET binding assay (TNKS1)
T2 construct: construct: 1088-1327, 1266M
T2 sequence (O95271 1088-1327): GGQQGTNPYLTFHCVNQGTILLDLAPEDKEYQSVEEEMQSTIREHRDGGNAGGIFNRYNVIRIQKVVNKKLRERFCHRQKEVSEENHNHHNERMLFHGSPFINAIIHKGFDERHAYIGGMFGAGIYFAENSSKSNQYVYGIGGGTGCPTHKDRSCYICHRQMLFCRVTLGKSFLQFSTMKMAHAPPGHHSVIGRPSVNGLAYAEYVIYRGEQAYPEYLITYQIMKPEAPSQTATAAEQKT
Description: as §1, §2
Reagents and Stock Solutions
as §4
Assay buffer 1a (AB 1a) for TNKS dilution: 50 mM Tris, pH 7.4, 100 mM sodium chloride solution, 1 mM magnesium chloride solution, 1 mM DL-dithiothreitol solution, 0.2 mg/mL bovine serum albumin solution, 0.025% NP-40.
Assay buffer 1b (AB 1b) for Biotin-IWR2 dilution: 50 mM Tris, pH 7.4, 100 mM sodium chloride solution, 1 mM magnesium chloride solution, 1 mM DL-dithiothreitol solution, 0.2 mg/mL bovine serum albumin solution, 0.05% NP-40
Assay buffer 1c (AB 1c) for compound dilution: 50 mM Tris, pH 7.4, 100 mM sodium chloride solution, 1 mM magnesium chloride solution, 1 mM DL-dithiothreitol solution, 0.2 mg/mL bovine serum albumin solution
Assay buffer 2 (AB2) for Eu/APC: 50 mM Tris, pH 7.4, 100 mM sodium chloride solution, 1 mM magnesium chloride solution, 0.2 mg/mL bovine serum albumin solution
Reagent Stock Solution Preparation
Prepare BLANK well stock solution: 5% DMSO/AB1b buffer
Prepare TNKS1 stock solution (5× stock): 300 nM TNKS in AB1a buffer
as §10
TOTL and cpd wells: Solution 1 (Biotin-IWR2):
BLNK wells: Solution 2 (No Biotin-IWR2):
POSITIVE CONTROL wells: Solution 3 (Biotin-IWR2+XAV939)
as §11, §12
Centrifuge the assay plate at 2100 rpm for 2 minutes.
as §13, §14

[1] = biological target: T3, PARP1 (His6-PARP1, full length) (Homo sapiens, UniProt P09874); experiment: μHTS-TNKS-IWR2 TR-FRET binding assay with His6-PARP1 in place of TNKS1; conditions: Table I
T3 construct: His6-PARP1 (full length)
T3 sequence (P09874 whole entry): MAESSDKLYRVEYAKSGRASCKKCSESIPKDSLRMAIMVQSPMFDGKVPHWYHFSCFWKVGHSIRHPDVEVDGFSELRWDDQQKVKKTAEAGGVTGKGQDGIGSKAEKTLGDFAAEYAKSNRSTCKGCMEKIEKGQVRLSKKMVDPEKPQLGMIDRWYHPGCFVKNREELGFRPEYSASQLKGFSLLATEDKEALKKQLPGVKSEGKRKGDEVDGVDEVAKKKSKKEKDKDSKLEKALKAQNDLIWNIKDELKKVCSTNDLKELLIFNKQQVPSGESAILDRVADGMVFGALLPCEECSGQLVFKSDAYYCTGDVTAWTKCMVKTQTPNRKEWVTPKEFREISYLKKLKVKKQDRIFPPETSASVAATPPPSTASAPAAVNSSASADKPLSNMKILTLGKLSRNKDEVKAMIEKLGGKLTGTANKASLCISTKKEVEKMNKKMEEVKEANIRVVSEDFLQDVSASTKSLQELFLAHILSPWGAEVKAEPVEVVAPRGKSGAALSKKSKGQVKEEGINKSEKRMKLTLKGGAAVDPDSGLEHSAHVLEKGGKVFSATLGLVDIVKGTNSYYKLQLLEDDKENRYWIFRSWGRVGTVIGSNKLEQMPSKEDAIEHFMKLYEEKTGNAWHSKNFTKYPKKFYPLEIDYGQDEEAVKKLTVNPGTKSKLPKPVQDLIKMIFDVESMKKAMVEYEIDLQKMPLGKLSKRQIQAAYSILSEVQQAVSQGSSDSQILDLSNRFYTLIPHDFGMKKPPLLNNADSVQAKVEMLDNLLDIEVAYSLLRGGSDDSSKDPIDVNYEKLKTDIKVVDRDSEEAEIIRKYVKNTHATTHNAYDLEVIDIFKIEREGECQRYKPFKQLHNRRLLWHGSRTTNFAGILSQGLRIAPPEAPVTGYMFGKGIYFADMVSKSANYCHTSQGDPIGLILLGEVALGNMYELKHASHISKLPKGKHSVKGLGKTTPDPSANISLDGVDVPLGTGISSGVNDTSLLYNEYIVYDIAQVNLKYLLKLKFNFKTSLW
Description: as §1, §2, §3, §4
Positive control: 10 mM […] in DMSO, stored at −20° C.
as §5, §6, §7, §8, §9, §10, §11, §12, §13, §14, §15, §16

T1 sequence (Q9H2K2 934-1166): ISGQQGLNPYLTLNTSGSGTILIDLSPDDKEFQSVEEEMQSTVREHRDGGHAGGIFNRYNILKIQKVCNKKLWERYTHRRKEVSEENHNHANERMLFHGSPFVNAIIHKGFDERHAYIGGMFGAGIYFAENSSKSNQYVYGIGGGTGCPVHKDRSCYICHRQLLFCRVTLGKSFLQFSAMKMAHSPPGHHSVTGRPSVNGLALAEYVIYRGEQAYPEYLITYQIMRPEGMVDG

Structure (SMILES) | IC50 (tankyrase 2 (His6-TNKS2)) [nM] | IC50 (Tankyrase 1 (TNKS1)) [nM] | IC50 [1] [nM]
Cn1ccc2c(=O)[nH]c(N3CCN(c4ccccc4Cl)CC3)nc21 [Example 30, 2-[4-(2-Chloro-phenyl)-piperazin-1-yl]-7-methyl-3,7-dihydro-pyrrolo[2,3-d]pyrimidin-4-one] | 33 | 31 | 1400
Cn1ccc2c(=O)[nH]c(N3CCN(c4ccc(S(C)(=O)=O)cc4F)CC3)nc21 [Example 24, 2-[4-(2-Fluoro-4-methanesulfonyl-phenyl)-piperazin-1-yl]-7-methyl-3,7-dihydro-pyrrolo[2,3-d]pyrimidin-4-one] | 47 | 35 | 1280
Cn1ccc2c(=O)[nH]c(-n3cccn3)nc21 [Example 56, 7-Methyl-2-pyrazol-1-yl-3,7-dihydro-pyrrolo[2,3-d]pyrimidin-4-one] | 9160 | 7800 | > 50000
CCOC(=O)c1ccc(N2CCN(c3nc4c(ccn4C)c(=O)[nH]3)CC2)cc1 [Example 2, Ethyl 4-(4-(7-methyl-4-oxo-4,7-dihydro-3H-pyrrolo[2,3-d]pyrimidin-2-yl)piperazin-1-yl)benzoate] | 66 | 70 | 564
Cn1ccc2c(=O)[nH]c(N3CCN(c4nccnc4C#N)CC3)nc21 [Example 10, 4-(7-Methyl-4-oxo-4,7-dihydro-3H-pyrrolo[2,3-d]pyrimidin-2-yl)-3,4,5,6-tetrahydro-2H-[1,2]bipyrazinyl-3′-carbonitrile] | 121 | 111 | 603
O=c1[nH]c(-c2ccc(C(F)(F)F)cc2)nc2c1ccn2CCC(O)CO (stereo not drawn) [Example 53, 7-(3,4-Dihydroxy-butyl)-2-(4-trifluoromethyl-phenyl)-3,7-dihydro-pyrrolo[2,3-d]pyrimidin-4-one] | 168 | 240 | 2380
CCNC(=O)c1ccc(N2CCN(c3nc4c(ccn4C)c(=O)[nH]3)CC2)cc1 [Example 55, N-Ethyl-4-[4-(7-methyl-4-oxo-4,7-dihydro-3H-pyrrolo[2,3-d]pyrimidin-2-yl)-piperazin-1-yl]-benzamide] | 40 | 37 | 449
Cc1ccc(-c2nc3c(ccn3C)c(=O)[nH]2)cn1 [Example 42, 7-Methyl-2-(6-methyl-pyridin-3-yl)-3,7-dihydro-pyrrolo[2,3-d]pyrimidin-4-one] | 235 | 228 | 166

Continued, values first:

IC50 (tankyrase 2 (His6-TNKS2)) [nM] | IC50 (Tankyrase 1 (TNKS1)) [nM] | IC50 [1] [nM] | Structure (SMILES)
59 | 59 | 758 | Cn1ccc2c(=O)[nH]c(N3CCN(c4cccc(F)c4)CC3)nc21 [Example 18, 2-[4-(3-Fluoro-phenyl)-piperazin-1-yl]-7-methyl-3,7-dihydro-pyrrolo[2,3-d]pyrimidin-4-one]
51 | 42 | 1060 | Cn1ccc2c(=O)[nH]c(N3CCN(c4ccc(Cl)cc4)CC3)nc21 [Example 3, 2-[4-(4-Chloro-phenyl)-piperazin-1-yl]-7-methyl-3,7-dihydro-pyrrolo[2,3-d]pyrimidin-4-one]
45 | 43 | 732 | Cn1ccc2c(=O)[nH]c(N3CCN(c4ccccc4)CC3)nc21 [Example 29, 7-Methyl-2-(4-phenyl-piperazin-1-yl)-3,7-dihydro-pyrrolo[2,3-d]pyrimidin-4-one]
153 | 204 | 1250 | Cn1ccc2c(=O)[nH]c(N3CCN(c4ccc(Cl)c(Cl)c4)CC3)nc21 [Example 26, 2-[4-(3,4-Dichloro-phenyl)-piperazin-1-yl]-7-methyl-3,7-dihydro-pyrrolo[2,3-d]pyrimidin-4-one]
135 | 164 | 292 | Cn1cc(-c2cc3c(ccn3C)c(=O)[nH]2)cn1 [Example 47, 1-Methyl-6-(1-methyl-1H-pyrazol-4-yl)-1,5-dihydro-pyrrolo[3,2-c]pyridin-4-one]
